The values that follow are results of earlier work, collected in US20240299293A1 (priority 2020, published 2024).

This data set relates to human coronaviruses, including CoV-229E and SARS-COV, and animal coronaviruses. As to conditions: for elimination of coronaviruses: hexachlorophene, 2% glutaraldehyde, 1% povidone-iodine, benzalkonium chloride, chlorhexidine.

Take `[H]/N=C(\N/C(=N/[H])NCCCCCCNC(=N)NC(=N)Nc1ccc(Cl)cc1)Nc1ccc(Cl)cc1` [chlorhexidine]: the elimination of coronaviruses entry is given as “only if 70% ethanol is present in the solution”. For the compound `CCO` [ethanol], under “70% ethanol, viruses in suspension and dried on surfaces, within seconds”, the reduction of viability entry is listed as “greater than 3 log”. `O=CCCCC=O` [glutaraldehyde]: the elimination of coronaviruses entry is on record as “satisfactory elimination rates”. Take `Oc1c(Cl)cc(Cl)c(Cl)c1Cc1c(O)c(Cl)cc(Cl)c1Cl` [hexachlorophene]: the elimination of coronaviruses result is on record as “satisfactory elimination rates”.

On to `OCl` [sodium hypochlorite], for which the susceptibility of coronaviruses result (6% sodium hypochlorite solutions) is given as “variable”. Regarding benzalkonium chloride, the elimination of coronaviruses entry is “only if 70% ethanol is present in the solution”. In the case of povidone-iodine, the elimination of coronaviruses entry is “satisfactory elimination rates”.
